We go through seven compounds from article PMC10373114, “CDK2 regulates collapsed replication fork repair in CCNE1-amplified ovarian cancer cells via homologous recombination” (NAR Cancer, 2023).

One assay concerns COV644 cells. The assay is described as follows: CyQuant proliferation assay. The format is cell-based, human. The note with it: 5 days. On the procedure:
(§1) OVCAR-3, COV644, or MCF-7 cells were seeded at 1000 cells/well in 384-well black, clear bottom plates and allowed to adhere overnight at 37°C/5% CO2. The following day, cells were treated with compound in a 10-point dose response, 1:4 dilutions. After 5 days of incubation, CyQuant Direct Proliferation Assay was performed according to the manufacturer's instructions. Data were processed with GraphPad Prism using a four-parameter fit to calculate IC50.

A further assay concerns kinases tested (n = 468). The assay is described as follows: KINOMEscan kinome selectivity. To be noted: fraction of kinases with <10% of control at 3 μM among 468 kinases tested. The format is binding.
A further assay relates to MCF-7 cells. The assay is described as follows: CyQuant proliferation assay. The format is cell-based. The note with it: Homo sapiens, MCF7, 120 h, read-out: MCF-7 IC50. On the procedure: as §1
The subject of assay [1] is CtIP bandshift and pRPA S4/8. Nature of the assay: Western blot of HR signaling after etoposide. Format: cell-based. To be noted: 1 μM RO-3306 or 10 μM roscovitine, 24 h before 50 μM etoposide 2 h. Here is the method: Cells were lysed in PhosphoSafe Lysis Buffer (EDM millipore, Cat#71296) and protein was quantified using the Pierce BCA Gold Kit (Thermo Fisher Scientific Cat#A53227). Lysate and lysis buffer were combined with 4× Loading Dye (Bio-Rad, Cat#1610747) and 2ME (Bio-Rad, Cat#1610710). Samples were loaded into Bio-Rad 4–20% Tris-glycine, 18-well SDS-PAGE (Cat#5671094). Transfer was performed using Bio-Rad dry transfer system (Trans-Blot Turbo) (Nitrocellulose membrane, 0.2 μM). Blocking was performed using LI-COR Odyssey Blocking Buffer (Cat#927–70001). Primary antibodies (CDK2 1:500, p16 1:1000, CCNE1 1:500, pRbT821 1:500, Actin R 1:2000, p21 1:1000, CCNA2 1:500, pRb S807/811 1:1000, pRb S780 1:500, CtIP 1:1000, Actin M 1:5000, pH2A.X Ser139 1:1000, pCDK2 T160 1:1000, pRPA S4/8 1:1000, CDK1 1:1000, pCDK1 Y15 1:1000, pChk1 S317 1:500, Total Chk1 1:1000, Tubulin 1:10 000) were combined with Odyssey Blocking Buffer and 0.1% Tween-20, and incubated at 4°C, rotating. Secondary antibodies were combined with Odyssey Blocking Buffer and 0.1% Tween-20 and incubated at room temperature, rotating. All secondary antibodies were diluted to 1:10 000 (LI-COR Cat#926–33212, Cat#926-33213, Cat#926-68070, Cat#926–68071, Cat#926–68076). Signals were detected using LI-COR Odyssey CLx Imaging Studio.

Assay [2] relates to OVCAR-3 cells. Nature of the assay: CyQuant proliferation assay. The format is cell-based, human. The note with it: 5 days. On the procedure: as §1
Assay [3] deals with OVCAR-3 cells. The assay is described as follows: Proliferative recovery after HU-induced replication fork collapse (IncuCyte confluence). The format is cell-based, human. To be noted: 500 nM, HU 2 mM 24 h pulse. On the procedure: Figure S2. Replication fork stall signaling is dependent on CDK2, HR in CCNE1 - […]
(A) Cyclin E1 protein expression is strongly associated with CCNE1 copy number […]
amplification among TCGA patients with ovarian cancer (n=304) (Welch Two Sample t- […]
test, P = 2.3E-13). (B) Chemical structures of BLU1851. (C) Kinome tree for BLU1851 […]
at 3 µM (S-Score = 0.050). (D) Dose-response curves for BLU1851 enzyme inhibition […]
for indicated CDK family members. Error bars represent SD of at least duplicate independent experiments. (E) NanoBRET assessment of BLU1851 target engagement […]
in indicated CDK complexes expressed in HEK-293 cells. Error bars represent SD of at […]
least duplicate independent experiments. (F) Dose-response curve for pRb T821/826 […]
inhibition by BLU1851 in OVCAR-3 cells. Error bars represent SD of at least duplicate independent experiments. (G) Dose-response curve for pLamin S22 inhibition by BLU1851 in OVCAR-3 and COV644 cells. Error bars represent SD of duplicate independent experiments. (H) Dose-response curves in MCF-7, OVCAR-3 cells. […] (I) Quantification of pCHK1 S317 normalized to […]
allowed to recover in the presence of rabusertib. Confluence was calculated using […]
confluency at experimental endpoint. Confluence was measured by IncuCyte live cell […]
imaging and values were determined using an algorithm to detect cells from phase- […]

Assay [4] has as its system homologous recombination (3X-FLAG ACTB reporter). Nature of the assay: CRISPR/Cas9 recombination assay. The format is cell-based, human. The note with it: 25 or 250 nM BLU1851, 10 μM roscovitine; 72 h. Here is the method:
pBluescript SK II + and LentiCRISPR v2 plasmids were purchased from Genscript. LentiCRISPR v2 plasmids expressing single guide (sgRNA) against ACTB or scrambled sgRNA were constructed according to the depositor's instructions. To construct HR donor vectors against ACTB, sequences from −1554 to +1527 relative to the stop codon of ACTB plus 3× FLAG directly 5’ from the stop codon were synthesized and cloned into pBluescript SK II using restriction digest and ligation. Compounds were added to cells on the day of plasmid transfection. sgRNA/Cas9 and the donor plasmid were prepared in a 1:2 molar ratio; 1 μg of total DNA/well was transfected onto cells using Lipofectamine 2000 (Thermo Fisher Scientific Cat#11668019). Cells were harvested for Western Blot analysis 72 h later.

pIC50: −log10 of the molar value.

As for `CC(C)CC(=O)c1c(Nc2ccc(Cl)cc2Cl)[nH]c2c(Cl)ccc([N+](=O)[O-])c2c1=O` [JH-RE-06], the “sensitivity of COV644 cells compared with OVCAR-3 cells (proliferative IC50)” value in the assay with COV644 cells is given as “more sensitive”.
Regarding `CC(=O)c1c(C)c2cnc(Nc3ccc(N4CCNCC4)cn3)nc2n(C2CCCC2)c1=O` [Palbociclib, reference compound], the “Kinome S (10)” value in the assay with kinases tested (n = 468) is 0.041. Further, the pIC50 (as a rule, the negative decadic logarithm of the IC50, by convention in mol/L) in the assay on MCF-7 cells was 6.82.
With `O=C1NC(=NCc2cccs2)S/C1=C\c1ccc2ncccc2c1` [RO-3306], the “HR signaling across cell lines tested” value in assay [1] was “only a small effect in some cell lines”.
With `N=C1NC(=O)/C(=C/c2ccc(O)cc2)S1` [mirin], in the assay with OVCAR-3 cells [2], the “sensitivity of OVCAR-3 cells compared with COV644 cells (proliferative IC50)” value was “more sensitive”.
As for `Cc1cnc(NC(=O)Nc2cc(Br)c(C)cc2OC[C@@H]2CNCCO2)cn1` [rabusertib], the “proliferation following HU treatment” value with OVCAR-3 cells [3] is “suppressed the ability of OVCAR-3 cells to proliferate following HU treatment”.
Take `CC[C@H](CO)Nc1nc(NCc2ccccc2)c2ncn(C(C)C)c2n1` [roscovitine]: in assay [4], the “recombination (3X-FLAG product)” value is on record as “inhibited recombination in all cell lines”. Further, in assay [1], the “HR signaling across cell lines tested” value is listed as “suppressed HR signaling in most cell lines tested”.
Consider `COC1=C(N)C(=O)c2nc(-c3nc(C(=O)O)c(C)c(-c4ccc(OC)c(OC)c4O)c3N)ccc2C1=O` [streptonigrin], for which the “sensitivity of OVCAR-3 cells compared with COV644 cells (proliferative IC50)” value in the assay with OVCAR-3 cells [2] is “more sensitive”.
